According to patent publication US7956074B2, “Aryl-isoxazolo-4-yl-oxadiazole derivatives” (Hoffman-La Roche Inc., priority 2005, dated 2011):

Molecular target: T1, GABA A receptor α5β3γ2 (Homo sapiens, UniProt P18507+P31644)
T1 construct: expressed in transfected cells; host or cells: HEK293 cells, transiently transfected; membranes prepared
Experiment: [3H]flumazenil competition binding, human GABA A α5β3γ2
Conditions: competition for [3H]flumazenil (0.5 nM) binding, HEK293 cells expressing human (transiently transfected) α5β3γ2; means of two determinations; read-out: Ki[nM] hα5
Summary of the method: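 HEK293 membranes expressing GABA-A receptors (human transiently, rat stably transfected) were used for [3H]flumazenil competition in Krebs-tris buffer, pH 7.5. Incubation ran 1 h at 4 °C to equilibrium, followed by filtration and scintillation counting. Ki values are means of two determinations.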

Compound | Ki [nM]
COc1cc(N2CCOCC2)ccc1-c1nnc(-c2c(-c3cccs3)noc2C)o1 [Example 110, 4-{3-Methoxy-4-[5-(5-methyl-3-thiophen-2-yl-isoxazol-4-yl)-[1,3,4]oxadiazol-2-yl]-phenyl}-morpholine] | 19.5
CCNc1onc(-c2ccccc2)c1-c1nnc(-c2ccc(N3CCOCC3)cc2OC)o1 [Example 111, Ethyl-{4-[5-(2-methoxy-4-morpholin-4-yl-phenyl)-[1,3,4]oxadiazol-2-yl]-3-phenyl-isoxazol-5-yl}-amine] | 4.9
Cc1onc(-c2ccccc2)c1-c1nnc(-c2ccc(N3CCC(F)(F)CC3)cc2)o1 [Example 112, 4,4-Difluoro-1-{4-[5-(5-methyl-3-phenyl-isoxazol-4-yl)-[1,3,4]oxadiazol-2-yl]-phenyl}-piperidine] | 31.2
COc1cc(N2CCOCC2)ccc1-c1nnc(-c2c(-c3ccccc3)noc2-n2cccn2)o1 [Example 113, 4-{3-Methoxy-4-[5-(3-phenyl-5-pyrazol-1-yl-isoxazol-4-yl)-[1,3,4]oxadiazol-2-yl]-phenyl}-morpholine] | 7.4
COc1cc(N2CCOCC2)c(F)cc1-c1nnc(-c2c(-c3ccccc3)noc2C)o1 [Example 114, 4-{2-Fluoro-5-methoxy-4-[5-(5-methyl-3-phenyl-isoxazol-4-yl)-[1,3,4]oxadiazol-2-yl]-phenyl}-morpholine] | 6
COc1cc(N2CCOCC2)ccc1-c1nnc(-c2c(-c3ccccc3)noc2C#N)o1 [Example 115, 4-[5-(2-Methoxy-4-morpholin-4-yl-phenyl)-[1,3,4]oxadiazol-2-yl]-3-phenyl-isoxazole-5-carbonitrile] | 131
COc1cc(N2CCSCC2)c(F)cc1-c1nnc(-c2c(-c3ccccc3)noc2C)o1 [Example 116, 4-{2-Fluoro-5-methoxy-4-[5-(5-methyl-3-phenyl-isoxazol-4-yl)-[1,3,4]oxadiazol-2-yl]-phenyl}-thiomorpholine] | 4.5
COc1cc(N2CCS(=O)(=O)CC2)c(F)cc1-c1nnc(-c2c(-c3ccccc3)noc2C)o1 [Example 117, 4-{2-Fluoro-5-methoxy-4-[5-(5-methyl-3-phenyl-isoxazol-4-yl)-[1,3,4]oxadiazol-2-yl]-phenyl}-thiomorpholine 1,1-dioxide] | 2
Cc1onc(-c2ccccc2)c1-c1nnc(-c2cc(F)c(F)cc2F)o1 [Example 118, 2-(5-Methyl-3-phenyl-isoxazol-4-yl)-5-(2,4,5-trifluoro-phenyl)-[1,3,4]oxadiazole] | 149
Cc1onc(-c2ccccc2)c1-c1nnc(-c2cc(F)c(N3CCSCC3)cc2F)o1 [Example 119, 4-{2,5-Difluoro-4-[5-(5-methyl-3-phenyl-isoxazol-4-yl)-[1,3,4]oxadiazol-2-yl]-phenyl}-thiomorpholine] | 24.3
Cc1onc(-c2ccccc2)c1-c1nnc(-c2cc(F)c(N3CCS(=O)(=O)CC3)cc2F)o1 [Example 120, 4-{2,5-Difluoro-4-[5-(5-methyl-3-phenyl-isoxazol-4-yl)-[1,3,4]oxadiazol-2-yl]-phenyl}-thiomorpholine 1,1-dioxide] | 13.5
Cc1onc(-c2ccccc2)c1-c1nnc(-c2cccs2)o1 [Example 121, 2-(5-Methyl-3-phenyl-isoxazol-4-yl)-5-thiophen-2-yl-[1,3,4]oxadiazole] | 115
Cc1onc(-c2ccccc2)c1-c1nnc(-c2ccsc2)o1 [Example 122, 2-(5-Methyl-3-phenyl-isoxazol-4-yl)-5-thiophen-3-yl-[1,3,4]oxadiazole] | 139
COc1cc(N2CCOCC2)ccc1-c1nnc(-c2c(-c3ccsc3)noc2C)o1 [Example 123, 4-{3-Methoxy-4-[5-(5-methyl-3-thiophen-3-yl-isoxazol-4-yl)-[1,3,4]oxadiazol-2-yl]-phenyl}-morpholine] | 14.4
COCCNc1ccc(-c2nnc(-c3c(-c4ccccc4)noc3C)o2)c(OC)c1 [Example 124, (2-Methoxy-ethyl)-{3-methoxy-4-[5-(5-methyl-3-phenyl-isoxazol-4-yl)-[1,3,4]oxadiazol-2-yl]-phenyl}-amine] | 8.2
Cc1onc(-c2ccccc2)c1-c1nnc(-c2cccc3[nH]cnc23)o1 [Example 125, 4-[5-(5-Methyl-3-phenyl-isoxazol-4-yl)-[1,3,4]oxadiazol-2-yl]-1H-benzoimidazole] | 26.8
COc1cc(NCCSC)c(F)cc1-c1nnc(-c2c(-c3ccccc3)noc2C)o1 [Example 126, {2-Fluoro-5-methoxy-4-[5-(5-methyl-3-phenyl-isoxazol-4-yl)-[1,3,4]oxadiazol-2-yl]-phenyl}-(2-methylsulfanyl-ethyl)-amine] | 4.5
COc1cc(NCCS(C)(=O)=O)c(F)cc1-c1nnc(-c2c(-c3ccccc3)noc2C)o1 [Example 127, {2-Fluoro-5-methoxy-4-[5-(5-methyl-3-phenyl-isoxazol-4-yl)-[1,3,4]oxadiazol-2-yl]-phenyl}-(2-methanesulfonyl-ethyl)-amine] | 1.7
COc1cc(NCCN2CCCC2=O)c(F)cc1-c1nnc(-c2c(-c3ccccc3)noc2C)o1 [Example 128, 1-(2-{2-Fluoro-5-methoxy-4-[5-(5-methyl-3-phenyl-isoxazol-4-yl)-[1,3,4]oxadiazol-2-yl]-phenylamino}-ethyl)-pyrrolidin-2-one] | 4.2
COc1cc(NCCO)c(F)cc1-c1nnc(-c2c(-c3ccccc3)noc2C)o1 [Example 129, 2-{2-Fluoro-5-methoxy-4-[5-(5-methyl-3-phenyl-isoxazol-4-yl)-[1,3,4]oxadiazol-2-yl]-phenylamino}-ethanol] | 2.5
COc1cc(NCc2ccccn2)c(F)cc1-c1nnc(-c2c(-c3ccccc3)noc2C)o1 [Example 131, {2-Fluoro-5-methoxy-4-[5-(5-methyl-3-phenyl-isoxazol-4-yl)-[1,3,4]oxadiazol-2-yl]-phenyl}-pyridin-2-ylmethyl-amine] | 21.2
COc1cc(NCCN2CCCC2)c(F)cc1-c1nnc(-c2c(-c3ccccc3)noc2C)o1 [Example 132, {2-Fluoro-5-methoxy-4-[5-(5-methyl-3-phenyl-isoxazol-4-yl)-[1,3,4]oxadiazol-2-yl]-phenyl}-(2-pyrrolidin-1-yl-ethyl)-amine] | 8.6
COc1cc(NCCN2CCNC2=O)c(F)cc1-c1nnc(-c2c(-c3ccccc3)noc2C)o1 [Example 133, 1-(2-{2-Fluoro-5-methoxy-4-[5-(5-methyl-3-phenyl-isoxazol-4-yl)-[1,3,4]oxadiazol-2-yl]-phenylamino}-ethyl)-imidazolidin-2-one] | 12.8
COc1cc(NC=O)ccc1-c1nnc(-c2c(-c3ccccc3)noc2C)o1 [Example 134, N-{3-Methoxy-4-[5-(5-methyl-3-phenyl-isoxazol-4-yl)-[1,3,4]oxadiazol-2-yl]-phenyl}-formamide] | 5.8
COc1cc(NCCN(C)C)c(F)cc1-c1nnc(-c2c(-c3ccccc3)noc2C)o1 [Example 135, N′-{2-Fluoro-5-methoxy-4-[5-(5-methyl-3-phenyl-isoxazol-4-yl)-[1,3,4]oxadiazol-2-yl]-phenyl}-N,N-dimethyl-ethane-1,2-diamine] | 9.4
Cc1onc(-c2ccccc2)c1-c1nnc(-c2ccc(N3CCOCC3)nc2)o1 [Example 136, 4-{5-[5-(5-Methyl-3-phenyl-isoxazol-4-yl)-[1,3,4]oxadiazol-2-yl]-pyridin-2-yl}-morpholine] | 15.3
